Our source for the IC50 values is BindingDB's records for doi:10.1080/14756360801945598 (Quaid-I-Azam University, 2009).

The target of the assay is Urease (Canavalia ensiformis, UniProt P07374). Kind of assay: Inhibition Assay. The text has this:
In vitro inhibition assay using jack bean urease.

Urease, sequence (P07374 whole entry): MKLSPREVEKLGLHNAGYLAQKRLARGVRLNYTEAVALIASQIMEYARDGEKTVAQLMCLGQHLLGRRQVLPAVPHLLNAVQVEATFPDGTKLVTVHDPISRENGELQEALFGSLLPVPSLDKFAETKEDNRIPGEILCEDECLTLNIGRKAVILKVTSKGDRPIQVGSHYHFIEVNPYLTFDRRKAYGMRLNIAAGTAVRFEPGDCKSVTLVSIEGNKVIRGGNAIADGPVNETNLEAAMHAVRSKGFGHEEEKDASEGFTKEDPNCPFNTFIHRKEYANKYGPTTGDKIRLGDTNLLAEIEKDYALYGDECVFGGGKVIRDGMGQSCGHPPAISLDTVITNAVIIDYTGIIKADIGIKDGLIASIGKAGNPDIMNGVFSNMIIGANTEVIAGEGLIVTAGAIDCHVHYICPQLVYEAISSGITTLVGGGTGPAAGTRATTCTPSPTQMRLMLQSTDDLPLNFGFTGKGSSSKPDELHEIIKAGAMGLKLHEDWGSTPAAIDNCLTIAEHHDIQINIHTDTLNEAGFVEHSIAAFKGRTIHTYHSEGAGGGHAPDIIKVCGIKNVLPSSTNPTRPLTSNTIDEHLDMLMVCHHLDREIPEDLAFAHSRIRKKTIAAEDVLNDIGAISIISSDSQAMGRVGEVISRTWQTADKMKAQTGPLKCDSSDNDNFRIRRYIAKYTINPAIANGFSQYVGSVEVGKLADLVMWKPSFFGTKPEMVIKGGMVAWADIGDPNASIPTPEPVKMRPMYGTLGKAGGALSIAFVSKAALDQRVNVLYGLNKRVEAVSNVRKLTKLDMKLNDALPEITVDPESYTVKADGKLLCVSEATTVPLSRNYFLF

On to `Oc1ccccc1C1CC(c2ccccc2)Sc2ccccc2N1` [2,3,4,5-Tetrahydro-1,5-benzothiazepine analog (2S,4R), 6], for which the IC50 turned out to be 91.2 µM.

For `Oc1ccccc1C1CC(c2ccc(F)cc2)Sc2ccccc2N1` [2,3,4,5-Tetrahydro-1,5-benzothiazepine analog (2S,4R), 7], inhibition was half-maximal at 93.7 µM (IC50).

Compound `c1ccc(C2=Nc3ccccc3SC(c3ccccc3)C2)cc1` (stereo unspecified) [Dihydro-1,5-benzothiazepine analog, 2] registered an IC50 of 26.3 µM.

With `Cc1ccc(C2CC(c3ccccc3)=Nc3ccccc3S2)cc1` (stereo unspecified) [Dihydro-1,5-benzothiazepine analog, 3], the IC50 is 24.6 µM.

Consider `O=COc1ccc(C2CC(c3ccccc3O)=Nc3ccccc3S2)cc1OC=O` (stereo unspecified) [Dihydro-1,5-benzothiazepine analog, 4], for which the IC50 is 19.1 µM.

For `O=[N+]([O-])c1ccc(C2CC(c3ccccc3)=Nc3ccccc3S2)cc1` (stereo unspecified) [Dihydro-1,5-benzothiazepine analog, 5], half-maximal inhibition (IC50) was put at 36.7 µM.
